pKi: −log10 of the molar value. Read-outs that look alike come from different tables or passages of the source. One block for each molecule: values may come before it.
Tests used:
[1] = test system: rhythmic bladder voiding contractions; assay: Volume-induced rhythmic bladder voiding contractions in anaesthetized rats; assay type: in vivo, rat; conditions: for ED (10 min disappearance of contractions) / ED50: Rattus norvegicus; for ED (10 min disappearance of contractions): read-out: ED10 min; for ED50: read-out: ED50 (frequency); for pharmacological activity on bladder voiding contractions (in words): nitro group at position 3 or 4 of the aniline ring
Method: Female Sprague Dawley rats weighing 225-275 g (Crl: CDo BR, Charles River Italia) were used. The animals were housed with free access to food and water and were maintained on a forced 12 h alternating light-dark cycle at 22-24° C. for at least one week, except during the experiment. The activity on the rhythmic bladder voiding contractions was evaluated according to the method of Dray (J. Pharmacol. Methods, 13:157, 1985), with some modifications as in Guarneri (Pharmacol. Res., 27:173, 1993). Briefly, rats were anesthetized by subcutaneous injection of 1.25 g/kg (5 ml/kg) urethane, after which the urinary bladder was catheterized via the urethra using PE 50 polyethylene tubing filled with physiological saline. The catheter was tied in place with a ligature around the external urethral orifice and was connected with conventional pressure transducers (Statham P23 ID/P23 XL). […] The bladder was then filled via the recording catheter by incremental volumes of warm (37° C.) saline until reflex bladder voiding contractions occurred (usually 0.8-1.5 ml). For intravenous (i.v.) injection of bioactive compounds, PE 50 polyethylene tubing filled with physiological saline was inserted into the jugular vein. From the cystometrogram, the number of contractions recorded 15 min before (basal values) and after treatment, as well as the mean amplitude of these contractions (mean height of the peaks in mmHg) was evaluated.
Since most compounds produced an effect that was relatively rapid in onset and led to a complete cessation of bladder contractions, bioactivity was conveniently estimated by measuring the duration of bladder quiescence (i.e., the duration of time during which no contractions occurred). The number of animals tested showing a reduction in the number of contractions >30% of that observed in the basal period was also recorded.
Also computed in this manner were extrapolated doses which induced a reduction of the number of contractions of greater than 30% in 50% of treated rats (ED50, frequency) by the method of Bliss (Bliss C. I., Quart. J. Pharm. Pharmacol. 11, 192-216, 1938). After the suppressive effects of drug injection wore off, the height of the contractile peaks was compared with the height of the peaks previously recorded after the control intravenous administration of vehicle. The potency of the tested compounds (ED50 value: the extrapolated doses inducing a 30% reduction of amplitude of the contractions in 50% of treated rats) was evaluated on a quantal basis by the method of Bliss (Bliss C. I., Quart. J. Pharm. Pharmacol. 11, 192-216, 1938).

urinary bladder = assay: Cystometric parameters (cystometrogram) in conscious rats; assay type: in vivo, rat; conditions: for BVC after treatment / MP after treatment: mean ± S.E.; for change in vivo at 0.3 mg/kg / change in vivo at 1 mg/kg: Rattus norvegicus, iv, 0.25 h, after vs before; for change in vivo at 0.3 mg/kg: i.v. 300 μg/kg; for change in vivo at 1 mg/kg: i.v. 1000 μg/kg
Method: Male Sprague Dawley rats (Crl: CDo BR) weighing 250-350 g were used. The animals were housed with free access to food and water and maintained on a forced 12 h alternating light-dark cycle at 22-24° C. for at least one week, except during performance of the experiment. To quantify urodynamic parameters in conscious rats, cystometrographic studies were performed using procedures previously described (Guarneri et al., Pharmacol. Res., 24:175, 1991). […] An approximately 10 mm long midline incision was made in the shaved and cleaned abdominal wall. The urinary bladder was gently freed from adhering tissues, emptied, and then cannulated, via an incision at the dome, with a polyethylene cannula (Portex PP30), which was permanently sutured with silk thread. The cannula was exteriorized through a subcutaneous tunnel in the retroscapular area, where it was connected with a plastic adapter to avoid the risk of removal by the animal. For intravenous (i.v.) injection of test compounds, a PE 50 polyethylene tubing filled with physiological saline was inserted into the jugular vein and exteriorized in the retroscapular area. The rats were utilized exclusively one day after implantation. On the day of the experiment, the rats were placed in Bollman's cages, after a stabilization period of 20 min, and the free tip of the bladder catheter was connected through a T-shaped tube to a pressure transducer (Bentley T 800/Marb P 82) and to a peristaltic pump (Gilson minipuls 2) for a continuous infusion, at the constant rate of 0.1 ml/min, of saline solution into the urinary bladder. The intraluminal pressure signal during infusion was continuously recorded on a polygraph (Battaglia Rangoni KO 380 with ADCl/T amplifier).
Two urodynamic parameters were evaluated: bladder volume capacity (BVC) and micturition pressure (MP). BVC (in ml) is defined as the minimum volume infused after which detrusor contraction (followed by micturition) occurs. MP (in mm Hg) is defined as the maximal intravesical pressure induced by the contraction of detrusor during micturition. Basal BVC and MP values were calculated as the means of the first two recorded cystometrograms. At this point in the assay, the infusion was interrupted and the test compounds were administered. Fifteen minutes after intravenous administration two additional cystometrograms were recorded in each animal and the mean values of the two cystometrographic parameters were calculated. The statistical significance of the differences in urodynamic parameter values was evaluated by Student's t test for paired data.

[2] = molecular target: T1, human 5-HT1A serotonergic receptor (Homo sapiens, UniProt P08908); assay: Radioreceptor binding, recombinant human 5-HT1A receptors ([3H]8-OH-DPAT, HeLa membranes); conditions: recombinant human receptor, [3H]8-OH-DPAT; Ki from IC50 by Cheng & Prusoff; read-out: Binding affinity for the 5-HT1A receptor, Ki
T1 construct: expressed in transfected cells; host or cells: HeLa
T1 sequence (P08908 1-422): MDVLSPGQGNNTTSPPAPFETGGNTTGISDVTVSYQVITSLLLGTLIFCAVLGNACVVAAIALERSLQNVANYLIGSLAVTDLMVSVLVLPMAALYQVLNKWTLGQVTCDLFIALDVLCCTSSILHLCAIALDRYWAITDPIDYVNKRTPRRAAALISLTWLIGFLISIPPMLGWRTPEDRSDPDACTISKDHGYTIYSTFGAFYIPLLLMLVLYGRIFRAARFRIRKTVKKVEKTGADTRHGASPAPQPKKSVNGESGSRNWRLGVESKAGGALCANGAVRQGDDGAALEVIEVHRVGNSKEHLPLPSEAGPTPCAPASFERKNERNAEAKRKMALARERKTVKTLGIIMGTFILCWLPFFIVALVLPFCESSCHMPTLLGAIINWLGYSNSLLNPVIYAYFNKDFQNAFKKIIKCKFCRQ
Method: Genomic clone G-21 coding for the human 5-HT1A serotonergic receptor is stably transfected in a human cell line (HeLa). HeLa cells were grown as monolayers in Dulbecco's modified Eagle's medium (DMEM), supplemented with 10% fetal calf serum and gentamicin ([…]), 5% CO2 at 37° C. Cells were detached from the growth flask at 95% confluence by a cell scraper and were lysed in ice-cold 5 mM Tris and 5 mM EDTA buffer (pH 7.4). Homogenates were centrifuged at 40000×g×20 min and pellets were resuspended in a small volume of ice-cold 5 mM Tris and 5 mM EDTA buffer (pH 7.4) and immediately frozen and stored at −70° C. until use. On the day of experiment, cell membranes were resuspended in binding buffer: 50 mM Tris HCl (pH 7.4), 2.5 mM MgCl2, 10 μM pargiline (Fargin et al., Nature 335, 358-360, 1988). Membranes were incubated in a final volume of 1 ml for 30 min at 30° C. with 0.2-1 nM [3H]8-OH-DPAT, in absence or presence of competing drugs; non-specific binding was determined in the presence of 10 μM 5-HT. The incubation was stopped by addition of ice-cold Tris-HCl buffer and rapid filtration through 0.2% polyethyleneimine pretreated Whatman GF/B or Schleicher & Schuell GF52 filters.
The inhibition of specific binding of the radioligands by the tested drugs was analyzed to estimate the IC50 value by using the non-linear curve-fitting program Allfit (De Lean et al., Am. J. Physiol. 235, E97-E102, 1978). The IC50 value was converted to an affinity constant (Ki) by the equation of Cheng & Prusoff (Cheng, Y. C.; Prusoff, W. H. Biochem. Pharmacol. 22, 3099-3108, 1973).

[3] = extrapolated dose inducing 10 min of disappearance of the contractions, intravenous, anaesthetized rats
[4] = extrapolated dose inducing a reduction of the number of contractions >30% in 50% of treated rats, intravenous

SMILES: COc1ccccc1N1CCN(CCNc2ccccc2)CC1 [Compound AA, 1-(N-phenyl-2-aminoethyl)-4-(2-methoxyphenyl)piperazine, reference compound]
ED (10 min disappearance of contractions) [1, 3]: 0.663 mg/kg | ED50 [1, 4]: 0.244 mg/kg

SMILES: COc1ccccc1N1CCN(CCN(C(=O)C2CCCCC2)c2cccc([N+](=O)[O-])c2)CC1 [Compound B, 1-[N-(3-nitrophenyl)-N-cyclohexylcarbonyl-2-aminoethyl]-4-(2-methoxypheny)piperazine, reference compound]
ED10 min [1, 3]: >1000 µg/kg | ED50 (frequency) [1, 4]: >1000 µg/kg | pharmacological activity on bladder voiding contractions (in words) [1]: pharmacological activity was abolished

SMILES: COc1ccccc1N1CCN(CCN(C(=O)C2CCCCC2)c2ccc([N+](=O)[O-])cc2)CC1 [Compound C, 1-[N-(4-nitrophenyl)-N-cyclohexylcarbonyl-2-aminoethyl]-4-(2-methoxyphenyl)piperazine, reference compound]
ED (10 min disappearance of contractions) [1, 3]: > 1 mg/kg | ED50 [1, 4]: > 1 mg/kg | pharmacological activity on bladder voiding contractions (in words) [1]: pharmacological activity was abolished

SMILES: COc1ccccc1N1CCN(CCNc2cccc([N+](=O)[O-])c2)CC1 [Compound D, 1-[N-(3-nitrophenyl)-2-aminoethyl]-4-(2-methoxyphenyl)piperazine, reference compound]
ED (10 min disappearance of contractions) [1, 3]: > 1 mg/kg | ED50 [1, 4]: > 1 mg/kg

SMILES: COc1ccccc1N1CCN(CCNc2ccc([N+](=O)[O-])cc2)CC1 [Compound E, 1-[N-(4-nitrophenyl)-2-aminoethyl]-4-(2-methoxyphenyl)piperazine, reference compound]
ED (10 min disappearance of contractions) [1, 3]: > 1 mg/kg | ED50 [1, 4]: > 1 mg/kg

SMILES: COc1ccccc1N1CCN(CCNc2ccccc2[N+](=O)[O-])CC1 [Example 1, 1-[N-(2-nitrophenyl)-2-aminoethyl]-4-(2-methoxyphenyl)piperazine]
ED (10 min disappearance of contractions) [1, 3]: 0.192 mg/kg | ED50 [1, 4]: 0.055 mg/kg

pKi [2]: 9.44
SMILES: COc1ccccc1N1CCN(CCN(C(=O)C2CCCCC2)c2ccccc2I)CC1 [Example 8]
BVC after treatment (urinary bladder; 15 min after i.v. 300 μg/kg): 0.71 ± 0.05 mL | MP after treatment (urinary bladder; 15 min after i.v. 300 μg/kg): 98.3 ± 17.2 mmHg | BVC after treatment (urinary bladder; 15 min after i.v. 1000 μg/kg): 0.88 ± 0.12 mL | MP after treatment (urinary bladder; 15 min after i.v. 1000 μg/kg): 64.8 ± 10.5 mmHg | change in vivo at 0.3 mg/kg (urinary bladder; read-out: BVC % of change): 21% | change in vivo at 0.3 mg/kg (urinary bladder; read-out: MP % of change): -15% | change in vivo at 1 mg/kg (urinary bladder; read-out: BVC % of change): 35% | change in vivo at 1 mg/kg (urinary bladder; read-out: MP % of change): -20%

SMILES: COc1ccccc1N1CCN(CCN(C(=O)C2CCCCC2)c2ccccc2OCC(F)(F)F)CC1 [Example 42, 1-[N-[2-(2,2,2-trifluoroethoxy)phenyl]-N-cyclohexylcarbonyl-2-aminoethyl]-4-(2-methoxyphenyl)piperazine]
ED (10 min disappearance of contractions) [1, 3]: 0.033 mg/kg | ED50 [1, 4]: 0.018 mg/kg | BVC after treatment (urinary bladder; 15 min after i.v. 300 μg/kg): 0.89 ± 0.15 mL | MP after treatment (urinary bladder; 15 min after i.v. 300 μg/kg): 66.5 ± 9.9 mmHg | BVC after treatment (urinary bladder; 15 min after i.v. 1000 μg/kg): 1.00 ± 0.16 mL | MP after treatment (urinary bladder; 15 min after i.v. 1000 μg/kg): 70.3 ± 7.8 mmHg | change in vivo at 0.3 mg/kg (urinary bladder; read-out: BVC % of change): 26.4% | change in vivo at 0.3 mg/kg (urinary bladder; read-out: MP % of change): -20% | change in vivo at 1 mg/kg (urinary bladder; read-out: BVC % of change): 41.7% | change in vivo at 1 mg/kg (urinary bladder; read-out: MP % of change): -9.2%

SMILES: COc1ccccc1N1CCN(CCN(C(=O)C2CCCCC2)c2ccccc2C#N)CC1.Cl [Example 43, 1-[N-(2-cyanophenyl)-N-cyclohexylcarbonyl-2-aminoethyl]-4-(2-methoxyphenyl)piperazine Hydrochloride]
ED (10 min disappearance of contractions) [1, 3]: 0.052 mg/kg | ED50 [1, 4]: 0.004 mg/kg

SMILES: Cc1c(-c2ccccc2)oc2c(C(=O)OCCN3CCCCC3)cccc2c1=O [Flavoxate, flavoxate, reference compound]
ED (10 min disappearance of contractions) [1, 3]: > 10 mg/kg | BVC after treatment (urinary bladder; 15 min after i.v. 300 μg/kg): 0.87 ± 0.11 mL | MP after treatment (urinary bladder; 15 min after i.v. 300 μg/kg): 95.0 ± 10.9 mmHg | BVC after treatment (urinary bladder; 15 min after i.v. 1000 μg/kg): 1.11 ± 0.16 mL | MP after treatment (urinary bladder; 15 min after i.v. 1000 μg/kg): 80.1 ± 11.1 mmHg | change in vivo at 0.3 mg/kg (urinary bladder; read-out: BVC % of change): 14.5% | change in vivo at 0.3 mg/kg (urinary bladder; read-out: MP % of change): 6.5% | change in vivo at 1 mg/kg (urinary bladder; read-out: BVC % of change): 26.1% | change in vivo at 1 mg/kg (urinary bladder; read-out: MP % of change): -11.4% | i.v. dose at which a significant increase in BVC was observed (urinary bladder; conscious rats, i.v.): 1.0 mg/kg
